Reference: patent publication US10875890B2, “Peptide inhibitors targeting the Neisseria gonorrhoeae pivotal anaerobic respiration factor AniA” (priority 2017, dated 2020)
Where two headings read alike, the source gives them in different places. Where a SMILES comes first, the peptide text is derived from it. The star is where a group is joined. Biotin = O=C1N[C@H]2[C@H](CS[C@H]2CCCCC(=O)*)N1; Ahx = NCCCCCC(=O)O

Experiments:
[1] = system: AniA nitrite reductase activity of intact N. gonorrhoeae FA1090 ΔaniA/PlacaniA cells; format: cell-based, Neisseria gonorrhoeae; conditions: for Inhibition of nitrite reductase activity of intact gonococci: FA1090 ΔaniA/PlacaniA
Description: Whole Cell Nitrite Utilization Studies. The FA1090 ΔaniA/Plac::aniA and ΔaniA/Plac::D137AH280A were grown to OD600˜1.0, gently spun down, decanted and re-suspended in GCBL. […] Subsequently, 0.1 mM sodium nitrite was added and the samples were transferred into an anaerobic chamber. After 1 h, nitrite consumption was measured using Griess Reagent (Biotium) as previously described for N. gonorrhoeae nitrite reductase whole cell assay (Shewell et al. 2013, Biochem Biophys Res Commun 431:215-20). Absorbance values were measured at OD545 using a Synergy HT plate reader and nitrite concentration was assessed against a nitrite standard prepared in GCBL. Percent inhibition was calculated using the formula % 1=100*(1−(x−y)/(z−y)) where “x”, “y” and “z” are the concentrations of nitrite in samples containing FA1090 ΔaniA/PlacaniA incubated with synthetic peptides, ΔaniA/PlacaniA D137A H280A and ΔaniA/PlacaniA, respectively. Experiments were performed on at least three separate occasions and mean with SEM are reported.

[2] = molecular target: T1, sAniA (recombinant AniA nitrite reductase) (Neisseria gonorrhoeae, UniProt Q02219); experiment: Inhibition of nitrite reductase activity of purified sAniA (fluorometric DAN nitrite assay); format: biochemical
T1 construct: wild type protein which lacks the N-terminal palmitoylation signal, sAniA; 6xHis (C); made in house; host or cells: Escherichia coli BL21(DE3)
Description: (§1) Measurements of Nitrite Reductase Activity with Purified AniA Variants. Enzymatic activity assessments with sAniA and AniA D137A H280A were performed based upon previous work (Boulanger and Murphy 2002, J Mol Biol 315:1111-27; Kakutani et al. 1981, J Biochem 89:463-72) but using a highly sensitive fluorometric assay for nitrite measurements that relies on the reaction of nitrite with 2,3-diaminonapthalene (DAN) to form the fluorescent product, 1-(H)-naphtothriazole (Misko et al. 1993, Anal Biochem 214:11-6). All reactions were conducted under anoxic or microoxic conditions. Fluorescence was measured at excitation of 360/40 nm and emission of 460/40 nm at a gain of 50 using a Synergy HT Plate Reader (BioTek). The sAniA and AniA D137AH280A activities are expressed as the mean reaction rate (nmoles of nitrite reduced/min/[…]) from at least ten independent experiments over the course of a nitrite utilization assay (Shewell et al. 2013, Biochem Biophys Res Commun 431:215-20).
(§2) Determination of Peptides Inhibitory Concentrations Required to Reduce the Signal by 50% (IC50s). […] Nitrite measurements with DAN were performed as described above after pre-incubation of samples for 1 h at room temperature. Control reactions consisted of sAniA alone and AniA D137A H280A treated in the same manner as the experimental samples. Reactions were performed in at least twelve independent experiments. Percent inhibition was calculated using the formula % I=100*(1−(x−y)/(z−y)) where “x”, “y” and “z” are the concentrations of nitrite in samples containing sAniA incubated with synthetic peptides, AniA D137A H280A and sAniA, respectively. The data were analyzed with a nonlinear log(inhibitor) vs. response—variable slope (four parameters) curve-fitting technique (GraphPad) to obtain […]. All experiments were performed in at least ten independent trials.

[3] = molecular target: sAniA (Neisseria gonorrhoeae, UniProt Q02219); experiment: biochemical
Description: Biolayer Interferometry. […] Streptavidin (SA) biosensors (ForteBio) were loaded with C7-3Bio peptides for 10 min. Unloaded tips were used as a control. The sAniA samples were prepared in Kinetic Buffer in concentrations of 50, 100, 500, and 1000 nM. The baseline was established for 240 s and the association and dissociation steps were performed for 500 s. Experiments were performed in three biological replicates with the curve fitting using 2:1 (Heterogeneous Ligand) model and KD value calculations were completed using Octet Data Analysis (version 9).

[4] = molecular target: T2, sAniA (recombinant AniA nitrite reductase) (Neisseria gonorrhoeae, UniProt Q02219); experiment: Inhibition of nitrite reductase activity of purified sAniA (fluorometric DAN nitrite assay); format: biochemical; conditions: peptide 0 to 100 μM, DAN nitrite consumption assay
T2 construct: wild type protein which lacks the N-terminal palmitoylation signal, sAniA; 6xHis (C); made in house; host or cells: Escherichia coli BL21(DE3)
T2 sequence (Q02219 whole entry, looked up): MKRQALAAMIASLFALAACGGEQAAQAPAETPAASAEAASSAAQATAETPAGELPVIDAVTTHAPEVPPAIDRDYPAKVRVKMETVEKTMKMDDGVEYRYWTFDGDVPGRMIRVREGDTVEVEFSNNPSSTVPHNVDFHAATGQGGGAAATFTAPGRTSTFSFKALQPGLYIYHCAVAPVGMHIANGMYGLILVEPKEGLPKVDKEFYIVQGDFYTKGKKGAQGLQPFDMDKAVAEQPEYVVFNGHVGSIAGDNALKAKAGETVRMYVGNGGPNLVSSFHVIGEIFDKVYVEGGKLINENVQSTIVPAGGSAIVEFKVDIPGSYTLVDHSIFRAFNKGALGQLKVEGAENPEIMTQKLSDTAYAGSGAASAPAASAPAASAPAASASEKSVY
Description: as §1, §2

[5] = molecular target: T3, sAniA (Neisseria gonorrhoeae, UniProt Q02219); experiment: Phage ELISA of phage-displayed peptides on sAniA-coated wells; format: binding; conditions: 10^10 PFU per well, absorbance at 450 nm
T3 construct: wild type protein which lacks the N-terminal palmitoylation signal, sAniA; 6xHis (C); made in house; host or cells: Escherichia coli BL21(DE3)
T3 sequence (Q02219 whole entry, looked up): T2 sequence (Q02219 whole entry, looked up)
Description: Phage Enzyme-linked Immunosorbent Assay (Phage ELISA). Individual wells in 96-well transparent plates (Greiner-Bio) were coated with 100 μL of 100 μg/mL of sAniA suspended in 0.1 M NaHCO3pH 8.6 and incubated overnight at 4° C. in an airtight humidified box. After incubation, excess target solution was shaken out and wells were filled with 300 μL of blocking buffer (0.1 M NaHCO3pH 8.6, 5 mg/mL BSA). Following 2 h incubation at 4° C., blocking buffer was removed and wells were washed six times with 200 μL of TBST (50 mM Tris-HCl pH 8.6, 150 mM NaCl, 0.5% Tween). Isolated individual phage amplifications (10^10 PFU) in 100 μl of TBST were incubated at room temperature for 1 h with rocking. All wells were then cleared by shaking and washed six times with 200 μL of TBST. A solution containing Anti-M13 HRP linked-Monoclonal Antibodies (NEB) (1:5,000 dilution in blocking buffer) was distributed at 200 μL per well and incubated with rocking at room temperature for 1 h. Wells were washed six times with TBST and incubated with Turbo TMB-ELISA for 30 min with rocking at room temperature. To stop the reaction, finally 100 μL of 1.78 M H2SO4 was added to each well. […] Data from seven independent experiments are shown with mean and SEM

CC(C)C[C@H](NC(=O)[C@H](CC(N)=O)NC(=O)[C@H](CC(C)C)NC(=O)[C@H](CCCNC(=N)N)NC(=O)[C@H](CS)NC(=O)[C@H](Cc1ccc(O)cc1)NC(=O)[C@H](CO)NC(=O)[C@H](CS)NC(=O)[C@H](C)N)C(=O)N[C@@H](Cc1c[nH]c2ccccc12)C(=O)NCC(=O)NCC(=O)NCC(=O)N[C@@H](CO)C(N)=O [C7-3mod2] (H-ACSYCRLNLWGGGS-NH2)
Inhibition of nitrite reductase activity of intact gonococci ([1]; 0.3 mM peptide): 50%
Inhibition of nitrite reductase activity of intact gonococci ([1]; 0.6 mM peptide): 90%

CC(C)C[C@H](NC(=O)[C@H](CC(N)=O)NC(=O)[C@H](CC(C)C)NC(=O)[C@H](CCCNC(=N)N)NC(=O)[C@H](CS)NC(=O)[C@H](Cc1ccccc1)NC(=O)[C@H](CC(N)=O)NC(=O)[C@H](CS)NC(=O)[C@H](C)N)C(=O)N[C@@H](Cc1c[nH]c2ccccc12)C(=O)NCC(=O)NCC(=O)NCC(=O)N[C@@H](CO)C(N)=O [C7-3P] (H-ACNFCRLNLWGGGS-NH2)
IC50 [2]: > 105000 nM

CC(C)C[C@H](NC(=O)[C@H](CC(N)=O)NC(=O)[C@H](CC(C)C)NC(=O)[C@H](CCCNC(=N)N)NC(=O)[C@H](CS)NC(=O)[C@H](Cc1ccc(O)cc1)NC(=O)[C@H](CC(N)=O)NC(=O)[C@H](CS)NC(=O)[C@H](C)NC(=O)CCCCCNC(=O)CCCC[C@@H]1SC[C@@H]2NC(=O)N[C@@H]21)C(=O)N[C@@H](Cc1c[nH]c2ccccc12)C(=O)NCC(=O)NCC(=O)NCC(=O)N[C@@H](CO)C(N)=O [C7-3Bio] ({Biotin-Ahx}-ACNYCRLNLWGGGS-NH2)
Kd [3]: 775 ± 88.5 nM

H-KHYYGGDTTTLWGGGS-NH2 [12-5, synthetic version of the dodecameric phage-display hit 12-5]
Effect on AniA activity of intact gonococci (in words) ([1]; highest tested concentration, 0.6 mM): no effect
Influence on AniA enzymatic activity (in words) [4]: did not influence AniA enzymatic activity
Relative binding of phage-displayed peptide to sAniA (in words) [5]: best binding

H-ACNYSRLNLWGGGS-NH2 [C7-3mod1]
Inhibition of AniA in intact gonococci (in words) ([1]; 0.15-0.6 mM tested, concentration not given): inhibited AniA moderately

CC(C)C[C@H](NC(=O)[C@H](CC(N)=O)NC(=O)[C@H](CC(C)C)NC(=O)[C@H](CCCNC(=N)N)NC(=O)[C@H](CS)NC(=O)[C@H](Cc1ccc(O)cc1)NC(=O)[C@H](CC(N)=O)NC(=O)[C@H](CS)NC(=O)[C@H](C)N)C(=O)N[C@@H](Cc1c[nH]c2ccccc12)C(=O)NCC(=O)NCC(=O)NCC(=O)N[C@@H](CO)C(N)=O [C7-3] (H-ACNYCRLNLWGGGS-NH2)
Kd [3]: 775 ± 88.5 nM
Inhibition of nitrite reductase activity of intact gonococci ([1]; 0.6 mM peptide): 50%
IC50 [2]: 10100 nM
